Assay results published in publication PMC6596218, “Anthranilic amide and imidazobenzothiadiazole compounds disrupt Mycobacterium tuberculosis membrane potential” (MedChemComm, 2019).
In brackets after ≈: the same amount, converted by molar mass.

What was measured:
[1] = tested on: M. tuberculosis; set-up: method as in PMID 30501173; settings: non-replicating, cited from earlier work
[2] = tested on: M. tuberculosis H37Rv; assay: Minimum bactericidal concentration at pH 4.5 (MBC4.5), luminescence readout; assay type: cell-based, Mycobacterium tuberculosis; settings: median, pH 4.5 phosphate citrate buffer, 7 days, 2-log reduction threshold, replicates in parentheses; for MBC: Mycobacterium tuberculosis, H37RV, 168 h
[3] = tested on: HepG2 cells; assay: HepG2 cytotoxicity (CellTiter-Glo, 72 h); assay type: cell-based; settings: Homo sapiens, mean ± standard deviation, replicates in parentheses
[4] = tested on: non-replicating M. tuberculosis; assay: Non-replicating kill kinetics at pH 5.5 (CFU over 21 days); assay type: cell-based, Mycobacterium tuberculosis; settings: single replicate; for log kill within 21 days: pH 5.5, 21 days
[5] = tested on: intracellular M. tuberculosis in RAW 264.7 cells; assay: Activity against intracellular M. tuberculosis in RAW 264.7 cells; assay type: cell-based, Mycobacterium tuberculosis; settings: RAW 264.7 cells (ATCC TIB-71)
Source text: In addition to determination of the MBC4.5 for each compound, we evaluated antitubercular activity of the compounds as measured by MIC at pH 5.6 (Table S1 ^†) and IC50 against intracellular M. tuberculosis in RAW 264.7 cells (ATCC TIB-71) (Table S2 ^†). […] General cytotoxicity against the infected RAW 264.7 cells was observed and was correlated with cytotoxicity against HepG2 cells (Table S2 ^†).

Question: For `O=[N+]([O-])c1cc2nc(C(F)(F)F)[nH]c2c2nsnc12` [Compound 2], which “decrease of CFU in the culture within 7 days” value ([1]; pH 4.5 and pH 6.8, 10–100 μM, 7 days) is on record?
Answer: Its value is greater than 4 logs.

Question: What about the “time to sterilizing the culture” value ([1]; pH 4.5 and pH 6.8, all concentrations 10–100 μM) of the same molecule?
Answer: Its value is no more than 14 days.

Question: What about the MBC [2] of the same molecule?
Answer: Its MBC is 25 µM (≈ 7.23 µg/mL).

Question: What about the MBC4.5 [2] of the same molecule?
Answer: Its MBC4.5 is 25 (2) μM.

Question: What about the IC50 [3] of the same molecule?
Answer: Its IC50 is 83 ± 24 µM.

Question: Which MBC [2] does the source give for `CS(=O)(=O)Nc1ccccc1C(=O)Nc1ccc(Cl)cc1Cl` [Compound 8, N-(2,4-dichlorophenyl)-2-(methylsulfonamido)benzamide] here?
Answer: Its MBC is 75 µM (≈ 26.9 µg/mL).

Question: What about the “log kill at 14 days” value ([4]; pH 5.5, 14 days) of the same molecule?
Answer: Its value is greater than 4 log.

Question: What about the IC50 [3] of the same molecule?
Answer: Its IC50 is 78 ± 29 µM.

Question: With `CCN(C)c1ccccc1C(=O)Nc1ccc(Cl)cc1Cl` [Compound 11, N-(2,4-dichlorophenyl)-2-(ethyl(methyl)amino)benzamide] as the molecule, how does the “antitubercular activity against intracellular M. tuberculosis” value [5] read?
Answer: Its value is “showed antitubercular activity”.

Question: And the MBC [2]?
Answer: Its MBC is greater than 200 µM.

Question: And the IC50 [3]?
Answer: Its IC50 is 69 ± 44 µM.

Question: With `Cc1ccc(S(=O)(=O)Nc2ccccc2C(=O)Nc2ccc(Cl)cc2Cl)cc1` [Compound 15, N-(2,4-dichlorophenyl)-2-(4-methylphenylsulfonamido)benzamide] as the molecule, how does the MBC [2] read?
Answer: Its MBC is greater than 200 µM.

Question: And the “log kill within 21 days” value [4]?
Answer: The value was greater than 3 logs.

Question: And the IC50 [3]?
Answer: The IC50 was 37 ± 8.5 µM.

Question: What does the source list for `O=C(Nc1ccccn1)c1ccccc1NS(=O)(=O)c1ccc(Br)cc1` [Compound 24, 2-(4-bromophenylsulfonamido)-N-(pyridin-2-yl)benzamide]?
Answer: MBC [2]: 113 µM (≈ 48.8 µg/mL); log kill within 21 days [4]: > 3 logs; IC50 [3]: 52 ± 13 µM
